Source: patent publication US20030171598A1, “Aminoacid-iodine complex” (priority 2001, published 2003)

Test system: vibrio splendidus
Conditions: Penaeus vannamei pond
Description: 600,000 of Penaeus vannamei were raised in a pond with 1.1M depth and 1.6 hectare. […] At the next night, the pond was sterilized using the product prepared according to Example 5 with the content of iodine of 0.01 ppm.

CSCC[C@H](N)C(=O)O.I [Example 5, methionine iodine]
killing vibrio splendidus (content of iodine 0.01 ppm): very effective | time after which glimmering in the pond has disappeared (sterilized at content of iodine of 0.01 ppm): 40 min
